ChEMBL document CHEMBL1154528, “Discovery of a novel series of quinoxalines as inhibitors of c-Met kinase” (Bioorg Med Chem Lett, 2009)

Key:
[1] = Inhibition of Flt at 10 uM; design: scale not given: the % may be the effect or the level left
[2] = molecular target: Vascular endothelial growth factor receptor 2 (Homo sapiens) (UniProt P35968); experiment: Inhibition of KDR at 10 uM; design: scale not given: the % may be the effect or the level left
Chain of Vascular endothelial growth factor receptor 2 (Homo sapiens) (P35968 whole entry): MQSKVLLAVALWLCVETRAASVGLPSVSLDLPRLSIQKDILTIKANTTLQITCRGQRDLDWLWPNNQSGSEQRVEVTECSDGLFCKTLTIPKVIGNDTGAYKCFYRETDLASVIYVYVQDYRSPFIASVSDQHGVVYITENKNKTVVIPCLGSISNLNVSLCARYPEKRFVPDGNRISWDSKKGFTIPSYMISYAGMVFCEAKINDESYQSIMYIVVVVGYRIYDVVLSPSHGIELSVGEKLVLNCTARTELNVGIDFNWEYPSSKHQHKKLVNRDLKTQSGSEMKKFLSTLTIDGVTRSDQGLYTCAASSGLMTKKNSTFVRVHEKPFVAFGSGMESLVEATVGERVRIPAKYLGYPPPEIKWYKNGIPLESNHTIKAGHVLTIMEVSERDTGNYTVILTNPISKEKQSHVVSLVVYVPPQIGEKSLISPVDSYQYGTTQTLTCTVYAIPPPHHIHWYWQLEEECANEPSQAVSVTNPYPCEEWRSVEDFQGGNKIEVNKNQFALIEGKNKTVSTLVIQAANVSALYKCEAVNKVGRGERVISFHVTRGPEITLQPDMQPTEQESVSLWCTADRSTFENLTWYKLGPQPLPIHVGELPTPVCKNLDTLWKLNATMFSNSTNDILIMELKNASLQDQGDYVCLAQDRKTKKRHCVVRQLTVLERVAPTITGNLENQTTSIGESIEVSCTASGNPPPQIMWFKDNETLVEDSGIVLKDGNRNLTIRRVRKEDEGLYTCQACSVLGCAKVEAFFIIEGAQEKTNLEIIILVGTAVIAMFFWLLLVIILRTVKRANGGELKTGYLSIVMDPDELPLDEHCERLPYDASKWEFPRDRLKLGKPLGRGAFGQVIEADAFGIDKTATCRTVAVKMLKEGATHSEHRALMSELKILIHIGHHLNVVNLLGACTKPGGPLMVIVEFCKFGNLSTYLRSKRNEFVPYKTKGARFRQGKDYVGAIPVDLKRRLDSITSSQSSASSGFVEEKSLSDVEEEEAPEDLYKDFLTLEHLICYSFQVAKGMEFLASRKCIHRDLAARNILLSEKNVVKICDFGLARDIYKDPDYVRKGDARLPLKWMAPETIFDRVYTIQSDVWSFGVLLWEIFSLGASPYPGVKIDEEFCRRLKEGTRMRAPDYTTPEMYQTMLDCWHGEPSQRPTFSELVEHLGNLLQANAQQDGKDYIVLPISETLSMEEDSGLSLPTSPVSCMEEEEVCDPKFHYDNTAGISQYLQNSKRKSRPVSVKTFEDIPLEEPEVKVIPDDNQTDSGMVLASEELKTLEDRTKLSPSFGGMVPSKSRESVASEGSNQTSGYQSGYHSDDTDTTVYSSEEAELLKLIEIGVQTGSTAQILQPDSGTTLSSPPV

Activity [1]: < 30%
Activity [2]: < 30%
SMILES: CN1CCN(c2cnc3cc(C(F)(F)F)cc(-c4ccccc4)c3n2)CC1
